Like-named read-outs stand apart in the source and are kept apart here. Numbered stars: 1 amine (or outer) side, 2 acyl side, 3 side chain; on linkers, the order of the positions; unused ones are H or OH. Bridge positions count the residues as written; N and C are the ends. Square brackets hold non-standard residues; d marks the D form. Peptide text beside a SMILES is read from it. I, II: the chains in the order shown. Actinocin(9to1) = Cc1c2oc3c(C)ccc(C(=O)[*:1])c3nc-2c(C(=O)[*:2])c(N)c1=O; NMeV = CN[C@H](C(=O)O)C(C)C; Sar = CNCC(=O)O
Assays:
[1] = type: in vivo, mice; settings: for Kidney concentration / Liver concentration / Brain peak area / Brain AUC0–6 h (peak area) / Brain Cmax (peak area) / Kidney AUC0–6 h / Kidney AUC0–∞ / Kidney Cmax / Liver AUC0–6 h / Liver AUC0–∞ / Liver Cmax: 0.5 mg/kg i.v.; for Kidney concentration / Liver concentration / Brain peak area: per gram of tissue
[2] = Act D treatment; cited from earlier work
[3] = paediatric patient population; cited from earlier work
[4] = system: ABCB1 (MDR1); experiment: Growth inhibition; settings: dog, 72 h
[5] = system: MDCKII-ABCB1 cells; experiment: Growth inhibition

Kidney concentration ([1]; Abcb1a/1b−/− mice, 0.25 h): 13,207 ± 1025 μg/L
Liver concentration ([1]; Abcb1a/1b−/− mice, 0.25 h): 2323 ± 239 µg/L
Brain peak area ([1]; Abcb1a/1b−/− mice, 0.5 h): 1420 ± 521 pa
Kidney concentration ([1]; Abcb1a/1b−/− mice, 0.5 h): 13,163 ± 2521 μg/L
Liver concentration ([1]; Abcb1a/1b−/− mice, 0.5 h): 1367 ± 133 µg/L
Brain peak area ([1]; Abcb1a/1b−/− mice, 2 h): 912.7 ± 461 pa
Kidney concentration ([1]; Abcb1a/1b−/− mice, 2 h): 5327 ± 1257 µg/L
Liver concentration ([1]; Abcb1a/1b−/− mice, 2 h): 737 ± 172 µg/L
Brain peak area ([1]; Abcb1a/1b−/− mice, 6 h): 1383 ± 439 pa
Kidney concentration ([1]; Abcb1a/1b−/− mice, 6 h): 2957 ± 872 µg/L
Liver concentration ([1]; Abcb1a/1b−/− mice, 6 h): 407 ± 9 µg/L
Brain AUC0–6 h (peak area) ([1]; Abcc2−/− mice): 3785 pa/g h
Brain Cmax (peak area) ([1]; Abcc2−/− mice): 1039 ± 181 pa
Kidney AUC0–6 h ([1]; Abcc2−/− mice): 33,079 μg/L h
Kidney AUC0–∞ ([1]; Abcc2−/− mice): 48,799 μg/L h
Kidney Cmax ([1]; Abcc2−/− mice): 13,107 ± 2318 μg/L
Liver AUC0–6 h ([1]; Abcc2−/− mice): 4445 ng·h/mL
Liver AUC0–∞ ([1]; Abcc2−/− mice): 5516 ng·h/mL
Liver Cmax ([1]; Abcc2−/− mice): 1540 ± 356 ng/mL
Brain peak area ([1]; Abcc2−/− mice, 0.25 h): 972 ± 455 pa
Kidney concentration ([1]; Abcc2−/− mice, 0.25 h): 13,107 ± 2318 μg/L
Liver concentration ([1]; Abcc2−/− mice, 0.25 h): 1317 ± 302 µg/L
Brain peak area ([1]; Abcc2−/− mice, 0.5 h): 1039 ± 181 pa
Kidney concentration ([1]; Abcc2−/− mice, 0.5 h): 10,593 ± 944 μg/L
Liver concentration ([1]; Abcc2−/− mice, 0.5 h): 1540 ± 356 µg/L
Brain peak area ([1]; Abcc2−/− mice, 2 h): 424.3 ± 120 pa
Kidney concentration ([1]; Abcc2−/− mice, 2 h): 4987 ± 161 µg/L
Liver concentration ([1]; Abcc2−/− mice, 2 h): 787 ± 99 µg/L
Brain peak area ([1]; Abcc2−/− mice, 6 h): 733 ± 470 pa
Kidney concentration ([1]; Abcc2−/− mice, 6 h): 3410 ± 527 µg/L
Liver concentration ([1]; Abcc2−/− mice, 6 h): 303 ± 128 µg/L
Brain AUC0–6 h (peak area) ([1]; WT mice): 2943 pa/g h
Brain Cmax (peak area) ([1]; WT mice): 1071 ± 217 pa
Kidney AUC0–6 h ([1]; WT mice): 29,552 μg/L h
Kidney AUC0–∞ ([1]; WT mice): 35,754 μg/L h
Kidney Cmax ([1]; WT mice): 13,323 ± 3960 μg/L
Liver AUC0–6 h ([1]; WT mice): 4473 ng·h/mL
Liver AUC0–∞ ([1]; WT mice): 5387 ng·h/mL
Liver Cmax ([1]; WT mice): 1810 ± 155 ng/mL
Brain peak area ([1]; WT mice, 0.25 h): 1071 ± 217 pa
Kidney concentration ([1]; WT mice, 0.25 h): 13,323 ± 3960 μg/L
Liver concentration ([1]; WT mice, 0.25 h): 1810 ± 155 µg/L
Brain peak area ([1]; WT mice, 0.5 h): 775.3 ± 127 pa
Kidney concentration ([1]; WT mice, 0.5 h): 10,713 ± 2498 μg/L
Liver concentration ([1]; WT mice, 0.5 h): 1593 ± 167 µg/L
Brain peak area ([1]; WT mice, 2 h): 501 ± 28.9 pa
Kidney concentration ([1]; WT mice, 2 h): 4693 ± 415 µg/L
Liver concentration ([1]; WT mice, 2 h): 747 ± 165 µg/L
Brain peak area ([1]; WT mice, 6 h): 309 ± 156 pa
Kidney concentration ([1]; WT mice, 6 h): 1970 ± 150 µg/L
Liver concentration ([1]; WT mice, 6 h): 287 ± 40 µg/L
Act D accumulation over 6 h in the kidneys higher than the liver ([1]; irrespective of transporter knockout genotype): 6.6- to 7.7 fold
SMILES: Cc1c2oc3c(C)ccc(C(=O)N[C@@H]4C(=O)N[C@H](C(C)C)C(=O)N5CCC[C@H]5C(=O)N(C)CC(=O)N(C)[C@@H](C(C)C)C(=O)O[C@@H]4C)c3nc-2c(C(=O)N[C@@H]2C(=O)N[C@H](C(C)C)C(=O)N3CCC[C@H]3C(=O)N(C)CC(=O)N(C)[C@@H](C(C)C)C(=O)O[C@@H]2C)c(N)c1=O [Act D, actinomycin D] (I: T[dV]P[Sar][NMeV] / II: T[dV]P[Sar][NMeV]; ester I:1-I:C, II:1-II:C; linker I:N-II:N via Actinocin(9to1))
incidence of liver toxicities [2]: 1.7–13.5 % of cases
range in AUC0–6 h between patients [3]: > 4 fold
GI50 at 72 h ([4]; GI50, MDCKII-ABCB1, + verapamil (1 μM)): 129 nM
GI50 at 72 h ([4]; GI50, MDCKII-ABCB1, Act D alone): 745 nM
decrease in GI50 with verapamil ([5]; MDCKII-ABCB1, verapamil 1 μM, 72 h): 6 fold
difference in GI50 between MDCKII-WT and MDCKII-ABCB1 ([5]; MDCKII-ABCB1 less sensitive than parental): 59 fold
